The text below walks through data of PubChem BioAssay (NCI).

Each structure is given as a SMILES string.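 A five-concentration, 48-hour dose response in 96-well plates underlies each endpoint, interpolated linearly between surrounding concentrations. GI50: concentration for 50% inhibition of growth. TGI: concentration producing complete growth inhibition.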 Some results are limits rather than exact numbers.

Holding throughout (assay): NCI anticancer screen, dose series, 48 h
In assay [1] the test system is A549 NSCLC.
The subject of assay [2] is LOX IMVI melanoma.
Assay [3] relates to MCF7 breast.
Assay [4] deals with MOLT-4 leukemia.
Assay [5] deals with NCI-H23 lung.
For assay [6], the system named is NCI-H522 lung.
In assay [7] the test system is OVCAR-3 ovarian.
In assay [8] the test system is RXF 393 renal.
In assay [9] the test system is SF-295 CNS.
The subject of assay [10] is HL-60(TB) leukemia.

For `C=C1C(O)C2C(=C(C)C13CC3)C(=O)C(C)(C)C2OC` (centres undefined), the GI50 in [1] is above 100 µM; in assay [2], above 100 µM; in [3], 69.4 µM; in assay [4] it was 38.6 µM; in assay [5], above 100 µM; in assay [6], 75.4 µM. The GI50 in [7], in [8] and in assay [9] was above 100 µM each time. The TGI in assay [1], in assay [2], in assay [3], in assay [4], in assay [5] and in assay [6] was above 100 µM in each case. The TGI in assay [7], in assay [8] and in [9] was above 100 µM throughout.

Take `COc1ccc(/C=C/c2cnccn2)cc1OC`: the TGI in [1], in assay [2], in assay [3], in assay [5], in [6] and in assay [7] was above 10 µM in each case. For the same compound, the TGI in [8] and in assay [9] was above 10 µM throughout.

As for `CN(C)CCNc1nc2ccccc2c2c(=O)c3cc(F)ccc3sc12`, the GI50 is 2.1 µM in [1]; 1.63 µM in assay [2]; 1.62 µM in assay [3]; 1.79 µM in [5]; 1.86 µM in [6]; 1.84 µM in assay [7]. The GI50 was 1.45 µM in assay [8] and 1.76 µM in [9]. Also, the TGI in assay [1] came out at 4.83 µM; in [2] it was 3.03 µM; in assay [3] it was 3.22 µM; in [5], 3.26 µM; in assay [6], 3.79 µM; in assay [7], 3.33 µM. In addition, the TGI in assay [8] is 2.83 µM; in assay [9], 3.22 µM.

On to `Cc1cc(NCCCCNc2ccnc3cc(Cl)ccc23)nc(Nc2ccc(C(=O)N3CCCCC3)cc2)n1`, for which the GI50 in assay [1] was 2.51 µM; in assay [2], 1.44 µM; in assay [3] it was 1.48 µM; in assay [4], 1.71 µM; in [5] it was 2.27 µM; in assay [6], 1.86 µM. Also, the GI50 in assay [7] is 1.7 µM; in assay [8], 1.24 µM; in assay [9], 1.67 µM. In addition, the TGI worked out at 5.47 µM in assay [1]; 3.01 µM in [2]; 4.34 µM in assay [3]; 7.13 µM in assay [4]; 5.73 µM in [5]; 4.22 µM in [6]. Besides, the results for the TGI in assay [7], in assay [8] and in assay [9] were 3.44 µM, 2.73 µM and 3.25 µM, respectively.

For the compound `O=C(NC1CCCCC1)c1ccc(Nc2ncnc3c2cnn3-c2ccccc2)cc1`, the GI50 was 4.38 µM in [1]; 4.49 µM in assay [2]; 74.1 µM in [3]; 75.6 µM in assay [4]; 10.9 µM in [5]; 6.4 µM in [6]. Moreover, the GI50 in [7] is 14.3 µM; in [8] it was 2.43 µM; in [9], 2.98 µM. Further, the TGI was 51.3 µM in [1]; 22.3 µM in assay [2]; above 100 µM in assay [3]; above 100 µM in assay [4]; 89.9 µM in assay [5]; above 100 µM in assay [6]. Moreover, the TGI was above 100 µM in assay [7], 9.33 µM in [8] and 13.3 µM in assay [9].

Take `CCc1nc(Cl)c(Cl)c(Cl)n1`: the TGI in [1], in [10], in [2], in [3], in assay [4] and in assay [5] was above 100 µM throughout. Besides, the TGI in assay [7], in assay [8] and in assay [9] was above 100 µM throughout.

Turning to `Cn1cc(-c2csc(-c3cn(C)c4ccc(F)cc34)n2)c2cnccc21`, the GI50 in assay [1] was 1.67 µM; in assay [10] it was 1.93 µM; in assay [3] it was 1.93 µM; in assay [5], 1.94 µM; in [6], 1.77 µM; in assay [7] it was 1.95 µM. In addition, the GI50 in assay [8] was 1.61 µM; in [9] it was 1.71 µM. Besides, the TGI worked out at 3.27 µM in [1]; 3.87 µM in assay [10]; 3.66 µM in [3]; 3.58 µM in [5]; 3.34 µM in assay [6]; 3.48 µM in assay [7]. Further, the TGI in assay [8] turned out to be 3.05 µM; in assay [9] it was 3.23 µM.

In the case of `COc1cc2c3c(n(CCCN(CCO)CCO)c(=O)c2cc1OC)-c1cc2c(cc1C3=O)OCO2`, the GI50 in [1] is 0.155 µM; in [10] it was below 0.01 µM; in assay [2], below 0.01 µM; in assay [3], below 0.01 µM; in assay [4], below 0.01 µM; in [5] it was below 0.01 µM. Besides, the GI50 is 0.062 µM in [7], 4.46 µM in [8] and below 0.01 µM in assay [9]. The TGI in assay [1] was 13 µM; in assay [10] it was 2.29 µM; in assay [2], 0.158 µM; in assay [3] it was above 24.7 µM; in assay [4], below 0.01 µM; in assay [5], 0.139 µM. In addition, the TGI was 0.295 µM in [7], above 100 µM in assay [8] and 0.288 µM in assay [9].

Regarding `COc1cc(/C=C/C(=O)C(C(=O)/C=C/c2ccc(OC(=O)CCNC34CC5CC(CC(C5)C3)C4)c(OC)c2)C(=O)CCNC23CC4CC(CC(C4)C2)C3)ccc1OC(=O)CCNC12CC3CC(CC(C3)C1)C2` (centres undefined), the GI50 in assay [1] is 2.86 µM; in [10], 1.95 µM; in assay [2], 1.98 µM; in [3], 1.97 µM; in assay [5], 5.02 µM; in [6] it was 3.46 µM. Also, the GI50 was 4.98 µM in [7], 1.96 µM in [8] and 17.2 µM in assay [9]. In addition, the TGI in assay [1] is 10.1 µM; in assay [10] it was 4.36 µM; in assay [2], 3.94 µM; in [3] it was 6.28 µM; in assay [5], above 100 µM; in [6] it was 15.2 µM. For the same compound, the TGI in assay [7] was above 100 µM; in [8], 5.17 µM; in [9], 34.4 µM.
